Source: article PMC5218480 (PLoS ONE, 2017)

Tested on: MV-4-11 cells
Experiment: Gene expression microarray analysis (Affymetrix PrimeView) and GSEA
Assay type: cell-based, human
Set-up: RFU PODN (11730768_x_at) / Fold change /veh PODN (11730768_x_at) / RFU LINC00158 (11744669_a_at) / Fold change /veh LINC00158 (11744669_a_at) / RFU DUSP10 (11751237_a_at) / Fold change /veh DUSP10 (11751237_a_at) / RFU ID3 (11757404_x_at) / Fold change /veh ID3 (11757404_x_at) / RFU PLEKHG5 (11737974_s_at) / Fold change /veh PLEKHG5 (11737974_s_at) / RFU LRRC4B (11730491_at) / Fold change /veh LRRC4B (11730491_at) / RFU GIMAP4 (11747438_a_at) / Fold change /veh GIMAP4 (11747438_a_at) / RFU KRT8 (11758183_x_at) / Fold change /veh KRT8 (11758183_x_at) / RFU CNN1 (11734310_a_at) / Fold change /veh CNN1 (11734310_a_at) / RFU VPS37D (11726825_at) / Fold change /veh VPS37D (11726825_at) / RFU C10orf10 (11716522_x_at) / Fold change /veh C10orf10 (11716522_x_at) / RFU KIR2DL2 /// KIR2DL4 /// KIR2DL5A /// KIR2DL5B /// KIR2DS1 /// KIR2DS2 /// KIR2DS3 /// KIR2DS4 /// KIR3DL3 /// KIR3DL3 /// KIR3DS1 (11738374_at) / Fold change /veh KIR2DL2 /// KIR2DL4 /// KIR2DL5A /// KIR2DL5B /// KIR2DS1 /// KIR2DS2 /// KIR2DS3 /// KIR2DS4 /// KIR3DL3 /// KIR3DL3 /// KIR3DS1 (11738374_at) / RFU C1QL1 (11718748_at) / Fold change /veh C1QL1 (11718748_at) / RFU TMPRSS4 (11747572_a_at) / Fold change /veh TMPRSS4 (11747572_a_at) / RFU HAMP (11756126_x_at) / Fold change /veh HAMP (11756126_x_at) / RFU RNFT2 (11725882_a_at) / Fold change /veh RNFT2 (11725882_a_at) / RFU NR4A2 (11747474_a_at) / Fold change /veh NR4A2 (11747474_a_at) / RFU ABCC12 (11746883_a_at) / Fold change /veh ABCC12 (11746883_a_at) / RFU TMEM136 (11760407_x_at) / Fold change /veh TMEM136 (11760407_x_at) / RFU CLDN22 /// WWC2 (11732394_at) / Fold change /veh CLDN22 /// WWC2 (11732394_at) / RFU HLA-DPB1 (11760878_x_at) / Fold change /veh HLA-DPB1 (11760878_x_at) / RFU SPINT1 (11716480_a_at) / Fold change /veh SPINT1 (11716480_a_at) / RFU GAP43 (11754022_s_at) / Fold change /veh GAP43 (11754022_s_at) / RFU A4GNT (11735810_at) / Fold change /veh A4GNT (11735810_at) / RFU PRB3 (11715151_x_at) / Fold change /veh PRB3 (11715151_x_at) / RFU TUBB4B (11761932_at) / Fold change /veh TUBB4B (11761932_at) / RFU CAPN14 (11732068_a_at) / Fold change /veh CAPN14 (11732068_a_at) / RFU TMCC2 (11721928_a_at) / Fold change /veh TMCC2 (11721928_a_at) / RFU IRGQ (11745062_a_at) / Fold change /veh IRGQ (11745062_a_at) / RFU FAM174B (11720279_a_at) / Fold change /veh FAM174B (11720279_a_at) / RFU TMPRSS4 (11748680_a_at) / Fold change /veh TMPRSS4 (11748680_a_at) / RFU FAM212B (11763350_a_at) / Fold change /veh FAM212B (11763350_a_at) / RFU PLEKHG5 (11743358_a_at) / Fold change /veh PLEKHG5 (11743358_a_at) / RFU ZSCAN30 (11745921_a_at) / Fold change /veh ZSCAN30 (11745921_a_at) / RFU CMKLR1 (11741424_a_at) / Fold change /veh CMKLR1 (11741424_a_at) / RFU LOC101060620 /// MAPK8IP1 (11723275_at) / Fold change /veh LOC101060620 /// MAPK8IP1 (11723275_at) / RFU SPTSSB (11747773_x_at) / Fold change /veh SPTSSB (11747773_x_at) / RFU PRSS12 (11739890_at) / Fold change /veh PRSS12 (11739890_at) / RFU BIN1 (11741810_x_at) / Fold change /veh BIN1 (11741810_x_at) / RFU WNT11 (11732464_a_at) / Fold change /veh WNT11 (11732464_a_at) / RFU C10orf10 (11716521_a_at) / Fold change /veh C10orf10 (11716521_a_at) / RFU C5orf56 (11738089_at) / Fold change /veh C5orf56 (11738089_at) / RFU CYB561 (11721691_x_at) / Fold change /veh CYB561 (11721691_x_at) / RFU ANKRD19P (11752326_a_at) / Fold change /veh ANKRD19P (11752326_a_at) / RFU OR2T12 /// OR2T33 /// OR2T8 (11738714_s_at) / Fold change /veh OR2T12 /// OR2T33 /// OR2T8 (11738714_s_at) / RFU VCAN (11748164_a_at) / Fold change /veh VCAN (11748164_a_at) / RFU JSRP1 (11732532_at) / Fold change /veh JSRP1 (11732532_at) / RFU KRTAP10-11 (11738290_x_at) / Fold change /veh KRTAP10-11 (11738290_x_at) / RFU MYO3A (11730013_a_at) / Fold change /veh MYO3A (11730013_a_at) / RFU EBF3 (11725865_a_at) / Fold change /veh EBF3 (11725865_a_at) / RFU CAMK2N1 (11719241_x_at) / Fold change /veh CAMK2N1 (11719241_x_at) / RFU C5orf56 (11738088_a_at) / Fold change /veh C5orf56 (11738088_a_at) / RFU OLFML3 (11715873_a_at) / Fold change /veh OLFML3 (11715873_a_at) / RFU LOC100653217 /// NTM (11731650_a_at) / Fold change /veh LOC100653217 /// NTM (11731650_a_at) / RFU MAPK11 (11762145_a_at) / Fold change /veh MAPK11 (11762145_a_at) / RFU FIZ1 (11724087_x_at) / Fold change /veh FIZ1 (11724087_x_at) / RFU OASL (11726364_x_at) / Fold change /veh OASL (11726364_x_at) / RFU SOX15 (11748057_x_at) / Fold change /veh SOX15 (11748057_x_at) / RFU CD79A (11719716_a_at) / Fold change /veh CD79A (11719716_a_at) / RFU HIST1H1D (11736915_at) / Fold change /veh HIST1H1D (11736915_at) / RFU CASKIN2 (11723855_a_at) / Fold change /veh CASKIN2 (11723855_a_at) / RFU LOC730098 (11760151_x_at) / Fold change /veh LOC730098 (11760151_x_at) / RFU OR4N2 (11742367_at) / Fold change /veh OR4N2 (11742367_at) / RFU PRRT2 (11749266_a_at) / Fold change /veh PRRT2 (11749266_a_at) / RFU SNX32 (11753110_a_at) / Fold change /veh SNX32 (11753110_a_at) / RFU CDHR5 (11726645_a_at) / Fold change /veh CDHR5 (11726645_a_at) / RFU RCAN1 (11760418_a_at) / Fold change /veh RCAN1 (11760418_a_at) / RFU FAM167A (11723789_a_at) / Fold change /veh FAM167A (11723789_a_at) / RFU FAM26E (11764081_at) / Fold change /veh FAM26E (11764081_at) / RFU ISYNA1 (11749810_s_at) / Fold change /veh ISYNA1 (11749810_s_at) / RFU ACY1 (11761880_at) / Fold change /veh ACY1 (11761880_at) / RFU 11764098_at / Fold change /veh 11764098_at / RFU SAMD14 (11745864_x_at) / Fold change /veh SAMD14 (11745864_x_at) / RFU NPB (11741838_a_at) / Fold change /veh NPB (11741838_a_at) / RFU TMPRSS6 (11731388_a_at) / Fold change /veh TMPRSS6 (11731388_a_at) / RFU KRTAP10-2 (11738614_at) / Fold change /veh KRTAP10-2 (11738614_at) / RFU ARHGAP8 /// PRR5-ARHGAP8 (11727945_x_at) / Fold change /veh ARHGAP8 /// PRR5-ARHGAP8 (11727945_x_at) / RFU KRTAP5-7 /// NADSYN1 (11734609_at) / Fold change /veh KRTAP5-7 /// NADSYN1 (11734609_at) / RFU RASL12 (11751679_a_at) / Fold change /veh RASL12 (11751679_a_at) / RFU CDKN2B (11736163_a_at) / Fold change /veh CDKN2B (11736163_a_at) / RFU PRF1 (11729649_at) / Fold change /veh PRF1 (11729649_at) / RFU, ZNF638 /// ZNF638-IT1 / Fold change vs veh, ZNF638 /// ZNF638-IT1 / RFU, PANK3 / Fold change vs veh, PANK3 / RFU, SH3YL1 / Fold change vs veh, SH3YL1 / RFU, ZEB2 / Fold change vs veh, ZEB2 / RFU, NRIP1 / Fold change vs veh, NRIP1 / RFU, PTTG1IP / Fold change vs veh, PTTG1IP / RFU, CAPN2 / Fold change vs veh, CAPN2 / RFU, MED14 / Fold change vs veh, MED14 / RFU, SNORA58 / Fold change vs veh, SNORA58 / RFU, C1orf63 / Fold change vs veh, C1orf63 / RFU, LRRFIP1 / Fold change vs veh, LRRFIP1 / RFU, NDUFAF7 / Fold change vs veh, NDUFAF7 / RFU, SLC12A2 / Fold change vs veh, SLC12A2 / RFU, IBTK / Fold change vs veh, IBTK / RFU, ESF1 / Fold change vs veh, ESF1 / Fold change vs veh, TMEM50B / RFU, TAOK1 / Fold change vs veh, TAOK1 / RFU, ACBD3 / Fold change vs veh, ACBD3 / RFU, TMA16 / Fold change vs veh, TMA16 / RFU, RWDD3 / Fold change vs veh, RWDD3 / RFU, BCAT1 / Fold change vs veh, BCAT1 / RFU, EDEM3 / Fold change vs veh, EDEM3 / RFU, TMEM33 / Fold change vs veh, TMEM33 / RFU, WDR75 / Fold change vs veh, WDR75 / RFU, AHCTF1 / Fold change vs veh, AHCTF1 / RFU, TFRC / Fold change vs veh, TFRC / RFU, ZDHHC17 / Fold change vs veh, ZDHHC17 / RFU, NOM1 / Fold change vs veh, NOM1 / RFU, ARL8B / Fold change vs veh, ARL8B / RFU, ZBTB11 / Fold change vs veh, ZBTB11 / RFU, TAMM41 / Fold change vs veh, TAMM41 / RFU, KIAA1704 /// LOC100996395 / Fold change vs veh, KIAA1704 /// LOC100996395 / RFU, ING1 / Fold change vs veh, ING1 / RFU, TRMT61B / Fold change vs veh, TRMT61B / RFU, FUBP3 / Fold change vs veh, FUBP3 / RFU, TP53 / Fold change vs veh, TP53 / RFU, TNKS2 / Fold change vs veh, TNKS2 / RFU, ZFP14 / Fold change vs veh, ZFP14 / RFU, ACTR2 / Fold change vs veh, ACTR2 / RFU, PPP3R1 / Fold change vs veh, PPP3R1 / RFU, PIK3R1 / Fold change vs veh, PIK3R1 / RFU, HNRNPA1 / Fold change vs veh, HNRNPA1 / RFU, RNF170 / Fold change vs veh, RNF170 / RFU, ZNF28 / Fold change vs veh, ZNF28 / RFU, RNGTT / Fold change vs veh, RNGTT / RFU, OGT / Fold change vs veh, OGT / RFU, BRD1 / Fold change vs veh, BRD1 / RFU, MARS / Fold change vs veh, MARS / RFU, ZNF655 / Fold change vs veh, ZNF655 / RFU, FAHD1 / Fold change vs veh, FAHD1 / RFU, BDP1 / Fold change vs veh, BDP1 / RFU, LRRCC1 / Fold change vs veh, LRRCC1 / RFU, ARID1A / Fold change vs veh, ARID1A / RFU, ZNF146 / Fold change vs veh, ZNF146 / RFU, ZNF330 / Fold change vs veh, ZNF330 / RFU, GPN3 / Fold change vs veh, GPN3 / RFU, C9orf123 / Fold change vs veh, C9orf123 / RFU, N4BP2L2 / Fold change vs veh, N4BP2L2 / RFU, ARFIP1 / Fold change vs veh, ARFIP1 / RFU, FAM179B / Fold change vs veh, FAM179B / RFU, BCL10 / Fold change vs veh, BCL10 / RFU, UHRF1BP1L / Fold change vs veh, UHRF1BP1L / RFU, BET1 / Fold change vs veh, BET1 / RFU, CNOT2 / Fold change vs veh, CNOT2 / RFU, ZNF268 / Fold change vs veh, ZNF268 / Fold change vs veh, ZNF507 / RFU, DGCR2 / Fold change vs veh, DGCR2 / RFU, WDSUB1 / Fold change vs veh, WDSUB1 / Fold change vs veh, HSP90B1 /// MIR3652 / RFU, ADSS / Fold change vs veh, ADSS / RFU, GK / Fold change vs veh, GK / RFU, ZNF148 / Fold change vs veh, ZNF148 / RFU, TAF9 / Fold change vs veh, TAF9 / RFU, SLC1A5 / Fold change vs veh, SLC1A5 / RFU, SLMO2 / Fold change vs veh, SLMO2 / RFU, ABCC4 / Fold change vs veh, ABCC4 / RFU, LOC101060439 /// RAP1B / Fold change vs veh, LOC101060439 /// RAP1B / RFU, RFX7 / Fold change vs veh, RFX7 / RFU, GTPBP10 / Fold change vs veh, GTPBP10 / RFU, CNEP1R1 / Fold change vs veh, CNEP1R1 / RFU, BIVM-ERCC5 /// ERCC5 / Fold change vs veh, BIVM-ERCC5 /// ERCC5 / RFU, ILF3 / Fold change vs veh, ILF3 / RFU 11762660_at / Fold change /veh 11762660_at / RFU VCAN (11757783_s_at) / Fold change /veh VCAN (11757783_s_at) / RFU DDX43 (11728927_at) / Fold change /veh DDX43 (11728927_at) / RFU KRT8 (11758188_x_at) / Fold change /veh KRT8 (11758188_x_at) / RFU NKD1 (11759106_at) / Fold change /veh NKD1 (11759106_at) / RFU SRD5A1 (11742802_a_at) / Fold change /veh SRD5A1 (11742802_a_at) / RFU TPSAB1 /// TPSB2 (11721975_s_at) / Fold change /veh TPSAB1 /// TPSB2 (11721975_s_at) / RFU GSTM3 (11746129_a_at) / Fold change /veh GSTM3 (11746129_a_at) / RFU IL23R (11737362_x_at) / Fold change /veh IL23R (11737362_x_at) / RFU TMEM51 (11727254_a_at) / Fold change /veh TMEM51 (11727254_a_at) / RFU PIWIL2 (11732686_x_at) / Fold change /veh PIWIL2 (11732686_x_at) / RFU ORM1 (11744905_x_at) / Fold change /veh ORM1 (11744905_x_at) / RFU CCDC152 (11743942_at) / Fold change /veh CCDC152 (11743942_at) / RFU ECM1 (11717891_a_at) / Fold change /veh ECM1 (11717891_a_at) / RFU IL23R (11748794_a_at) / Fold change /veh IL23R (11748794_a_at) / RFU TNFAIP8L3 (11732012_x_at) / Fold change /veh TNFAIP8L3 (11732012_x_at) / RFU MBOAT4 (11741988_at) / Fold change /veh MBOAT4 (11741988_at) / RFU 11764193_at / Fold change /veh 11764193_at / RFU TMEM53 (11763286_at) / Fold change /veh TMEM53 (11763286_at) / RFU MAGEB2 (11727129_at) / Fold change /veh MAGEB2 (11727129_at) / RFU TMEM200A (11744735_a_at) / Fold change /veh TMEM200A (11744735_a_at) / RFU CCDC152 (11751479_a_at) / Fold change /veh CCDC152 (11751479_a_at) / RFU FAM211A (11726209_a_at) / Fold change /veh FAM211A (11726209_a_at) / RFU RGS16 (11746705_a_at) / Fold change /veh RGS16 (11746705_a_at) / RFU VCAN (11755009_s_at) / Fold change /veh VCAN (11755009_s_at) / RFU RHOB (11743442_s_at) / Fold change /veh RHOB (11743442_s_at) / RFU RGS16 (11720943_a_at) / Fold change /veh RGS16 (11720943_a_at) / RFU RGS16 (11720944_at) / Fold change /veh RGS16 (11720944_at) / RFU, VPS4B / Fold change vs veh, VPS4B / RFU, CREB1 / Fold change vs veh, CREB1 / RFU, DNAJC13 / Fold change vs veh, DNAJC13 / RFU, GNAQ / Fold change vs veh, GNAQ / RFU, CDK5R1 / Fold change vs veh, CDK5R1 / RFU, ZRANB3 / Fold change vs veh, ZRANB3 / RFU, CUL4A / Fold change vs veh, CUL4A / RFU, CCNY / Fold change vs veh, CCNY / RFU, UFL1 / Fold change vs veh, UFL1 / RFU, COG3 / Fold change vs veh, COG3 / RFU, DIAPH2 / Fold change vs veh, DIAPH2 / RFU, SKA2 / Fold change vs veh, SKA2 / RFU, AFF3 / Fold change vs veh, AFF3 / RFU, LMF1 / Fold change vs veh, LMF1 / RFU, IPO11 / Fold change vs veh, IPO11 / RFU, DFFB / Fold change vs veh, DFFB / RFU, FOXP1 / Fold change vs veh, FOXP1 / RFU, CARD8 / Fold change vs veh, CARD8 / RFU, STRN3 / Fold change vs veh, STRN3 / RFU, ADK / Fold change vs veh, ADK / RFU, RASSF2 / Fold change vs veh, RASSF2 / RFU, WIPF1 / Fold change vs veh, WIPF1 / RFU, LARP1B / Fold change vs veh, LARP1B / RFU, RASA1 / Fold change vs veh, RASA1 / RFU, RB1 / Fold change vs veh, RB1 / RFU, PPFIA1 / Fold change vs veh, PPFIA1 / RFU, MAT2A / Fold change vs veh, MAT2A / RFU, CCT5 / Fold change vs veh, CCT5 / RFU, WDR92 / Fold change vs veh, WDR92 / RFU, CUX1 / Fold change vs veh, CUX1 / RFU, TTC7A / Fold change vs veh, TTC7A / RFU, TMEM135 / Fold change vs veh, TMEM135 / RFU, DEPTOR / Fold change vs veh, DEPTOR / RFU, CPM / Fold change vs veh, CPM / RFU, DNAJB6 / Fold change vs veh, DNAJB6 / RFU, CACNA2D3 / Fold change vs veh, CACNA2D3 / RFU, DTX4 / Fold change vs veh, DTX4 / RFU, TFCP2 / Fold change vs veh, TFCP2 / RFU, GMCL1 /// GMCL1P1 / Fold change vs veh, GMCL1 /// GMCL1P1 / RFU, AEBP2 / Fold change vs veh, AEBP2 / RFU, SNHG1 /// SNORD22 /// SNORD25 /// SNORD26 /// SNORD27 /// SNORD28 /// SNORD29 /// SNORD31 / Fold change vs veh, SNHG1 /// SNORD22 /// SNORD25 /// SNORD26 /// SNORD27 /// SNORD28 /// SNORD29 /// SNORD31 / Fold change (Aza/veh), C12orf56 (ProbeSet 11735607_a_at) / Fold change (ACY-1035/veh), C12orf56 (ProbeSet 11735607_a_at) / Fold change (Aza/veh), FGFR1OP (ProbeSet 11751329_s_at) / Fold change (ACY-1035/veh), FGFR1OP (ProbeSet 11751329_s_at) / Fold change (Aza/veh), VPS36 (ProbeSet 11739960_a_at) / Fold change (ACY-1035/veh), VPS36 (ProbeSet 11739960_a_at) / RFU SYPL1 (11715823_x_at) / Fold change /veh SYPL1 (11715823_x_at) / RFU IGFBP7 (11715501_s_at) / Fold change /veh IGFBP7 (11715501_s_at) / RFU REEP3 (11722064_at) / Fold change /veh REEP3 (11722064_at) / RFU IGLL1 (11728026_x_at) / Fold change /veh IGLL1 (11728026_x_at): dose or concentration left out as unconfirmed
Conditions: MV-4-11 cells, 48 hours

Nc1ccc(-c2cccs2)cc1NC(=O)c1ccc2c(c1)cc(C1CC1)n2CCN1CCOCC1 [ACY-1035]
Fold change /veh MYO3A (11730013_a_at): 1.10
